Here are results for twelve molecules from patent US7312188B2, “Peptide derivatives having β-secretase inhibitory activity” (priority 2003, dated 2007).

Numbered stars: 1 amine (or outer) side, 2 acyl side, 3 side chain; on linkers, the order of the positions; unused ones are H or OH. Square brackets hold non-standard residues; d marks the D form. Peptide text beside a SMILES is read from it. * marks the point of attachment. ξ: configuration not given here. β3hPhe(2R-OH) = O=C([C@H](O)[C@H](Cc1ccccc1)N[*:1])[*:2]; X3 = CC(C)C[C@H](N[*:1])[C@@H](O)C(=O)[*:2]; Ala(4-thiazolyl) = N[C@@H](Cc1cscn1)C(=O)O; Thz(5,5-Me2) = CC1(C)SCN[C@@H]1C(=O)O; Oxalyl = O=C(C(=O)[*:2])[*:1]; 4Amb = NCc1ccc(C(=O)O)cc1; 4Abz = Nc1ccc(C(=O)O)cc1; Orn = NCCC[C@H](N)C(=O)O; ξE = NC(CCC(=O)O)C(=O)O; Dap = NC[C@H](N)C(=O)O; X4 = CCOC(=O)C(=O)*

T1 sequence (P56817 22-460 limits assumed): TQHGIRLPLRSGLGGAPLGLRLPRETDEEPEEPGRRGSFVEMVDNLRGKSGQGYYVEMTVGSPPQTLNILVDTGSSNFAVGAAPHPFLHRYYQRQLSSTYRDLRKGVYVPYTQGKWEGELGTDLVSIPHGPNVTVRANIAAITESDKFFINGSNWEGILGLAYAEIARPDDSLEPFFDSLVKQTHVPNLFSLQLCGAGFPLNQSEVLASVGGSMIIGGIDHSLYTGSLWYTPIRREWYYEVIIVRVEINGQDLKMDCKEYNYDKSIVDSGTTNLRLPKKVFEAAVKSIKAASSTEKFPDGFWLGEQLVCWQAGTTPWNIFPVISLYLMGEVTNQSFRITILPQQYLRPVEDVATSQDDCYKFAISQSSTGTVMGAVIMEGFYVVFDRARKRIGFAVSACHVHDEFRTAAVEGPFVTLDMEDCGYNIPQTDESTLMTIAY

The test has as its target T1, recombinant human BACE-1 (rhBACE-1) (Homo sapiens, UniProt P56817).
T1 construct: expressed as only an extracellular region (amino acid 1-460 residues) of recombinant human β-secretase; His tag (C); purchased R&D systems (Minneapolis, Minn.); host or cells: murine myeloma cell line NS0
Description: BACE1 inhibitory activity, reverse phase HPLC quantitation of N-terminal fragment of fluorogenic substrate. In kind it is biochemical. The conditions noted are these: 1 μL of inhibitor solution in DMSO (100 μM) in 50 μL reaction; MES buffer pH 5.0; 37° C., 60 minutes. The text has this:
Experiment Regarding Measurement of BACE1 Inhibitory Activity
Enzyme Used in Measurement
As an enzyme having β-secretase activity, recombinant human BACE-1 (rhBACE-1) purchased from R&D systems (Minneapolis, Minn.) was used. rhBACE-1 is expressed as only an extracellular region (amino acid 1-460 residues) of recombinant human β-secretase, with a His tag at its carboxyl terminal in murine myeloma cell line, NS0. Purified secreted rhBACE1 is a mixture of a pro entity (about 75 kDa) and a mature entity (about 72 kDa).
Assessment of Enzyme Inhibitory Activity
Enzyme inhibitory activity of an inhibitor was assessed by quantitating an N-terminal fragment produced aftercleaving the substrate with BACE1 by reverse HPLC using (7-methoxycoumarin-4-yl)acetyl-[…]2,4-dinitrophenyl)-Arg-Arg-NH2 purchased from Peptide Institute (Osaka, Japan) as a substrate for BACE1. To 40 μL of 62.5 mM 2-(N-morpholino)ethansulfonic acid (MES)-CH3COOH—NaOH buffer (pH 5.0), were added 1 μL of a solution of an inhibitor diluted with DMSO (100 μM), 4 μL of rhBACE-1 (6.25 ng/μL), and 5 μL of an aqueous solution (50% DMSO) of 250 μM substrate (7-methoxycoumarin-4-yl)acetyl-[…]2,4-dinitrophenyl)-Arg-Arg-NH2 to initiate an enzyme reaction. After incubation at 37° C. for 60 minutes, 20 μL of 20% trichloroacetic acid was added to stop the reaction. And, inhibition % was calculated by measuring a fluorescent intensity of the N-terminal fragment (Ex, 328 nm; Em, 393 nm) using reverse phase HPLC (linear gradient of MeCN in aqueous TFA; flow rate, 1.0 mL/min).
BACE1 Inhibitory Activity
Enzyme inhibitory activity of an inhibitor was assessed by quantitating a N-terminal fragment produced after cleavage of a substrate with BACE1 by reverse phase HPLC using (7-methoxycoumarin-4-yl)acetyl-[…]2,4-dinitrophenyl)-Arg-Arg-NH2 purchased from Peptide Institute (Osaka, Japan) as a substrate for BACE1. Recombinant human BACE-1 purchased from R&D systems (Minneapolis, Minn.) was used. To 40 μL of 62.5 mM 2-(N-morpholino)ethansulfonic acid (MES)-CH3COOH—NaOH buffer (pH 5.0), were added 1 μL of a solution of an inhibitor diluted with DMSO (100 μM), 4 μL of BACE1 (6.25 ng/μL), and 5 μL of an aqueous solution (50% DMSO) of 250 μM substrate (7-methoxycoumarin-4-yl)acetyl-[…]2,4-dinitrophenyl)-Arg-Arg-NH2 to initiate an enzyme reaction. After incubation at 37° C. for 60 minutes, 20 μL of 20% trichloroacetic acid was added to stop a reaction. Inhibition % was calculated by measuring a fluorescent intensity of the N-terminal fragment (Ex, 328 nm; Em, 393 nm) using reverse phase HPLC (linear gradient of MeCN in aqueous TFA; flow rate, 1.0 mL/min).
The inhibition is the share of the control response that was lost under treatment. With `CC(C)C[C@H](NC(=O)[C@@H](NC(=O)[C@@H](N)CCC(=O)O)C(C)C)C(=O)N[C@@H](Cc1ccccc1)[C@@H](O)C(=O)N[C@@H](CC(=O)O)C(=O)N[C@@H](C)C(=O)Nc1ccc(C(=O)O)cc1` [Example 93] (H-EVL[β3hPhe(2R-OH)]DA[4Abz]-OH), the inhibition at 2 µM was 64.8%.

On to `CCOC(=O)C(=O)NC[C@H](N)C(=O)N[C@H](C(=O)N[C@@H](CC(C)C)C(=O)N[C@@H](Cc1ccccc1)[C@@H](O)C(=O)N[C@@H](CC(=O)O)C(=O)N[C@@H](C)C(=O)N[C@@H](CCC(=O)O)C(=O)O)C(C)C` [Example 95] (H-[Dap](X4)VL[β3hPhe(2R-OH)]DAE-OH), for which the inhibition at 2 µM is 61.7%.

With `CC(C)C[C@H](NC(=O)[C@@H](NC(=O)[C@@H](N)CCC(=O)O)C(C)C)C(=O)N[C@@H](Cc1ccccc1)[C@@H](O)C(=O)N[C@H](C(=O)N[C@@H](C)C(=O)N[C@@H](CCC(=O)O)C(=O)N[C@@H](Cc1ccccc1)C(=O)O)C(C)C` [Example 96] (H-EVL[β3hPhe(2R-OH)]VAEF-OH), the inhibition at 2 µM was 59.2%.

Turning to `CC(C)C[C@H](NC(=O)[C@@H](NC(=O)[C@@H](N)CCC(=O)O)C(C)C)C(=O)N[C@@H](CC(C)C)[C@@H](O)C(=O)N[C@@H](CC(=O)O)C(=O)N[C@@H](C)C(=O)N[C@@H](CCC(=O)O)C(=O)N[C@@H](Cc1ccccc1)C(=O)O` [Example 97] (H-EVL[X3]DAEF-OH), the inhibition at 2 µM was 59.1%.

For `CC(C)C[C@H](NC(=O)[C@@H](NC(=O)[C@@H](N)CCC(=O)O)C(C)C)C(=O)N[C@@H](Cc1ccccc1)[C@@H](O)C(=O)N[C@@H](CC(=O)O)C(=O)N[C@@H](C)C(=O)N[C@@H](CC(=O)O)C(=O)O` [Example 98] (H-EVL[β3hPhe(2R-OH)]DAD-OH), the inhibition at 2 µM is 58.4%.

Consider `CC(C)[C@H](NC(=O)[C@@H](N)CCC(=O)O)C(=O)N[C@@H](Cc1cscn1)C(=O)N[C@@H](Cc1ccccc1)[C@@H](O)C(=O)N[C@@H](CC(=O)O)C(=O)N[C@@H](C)C(=O)N[C@@H](CCC(=O)O)C(=O)N[C@@H](Cc1ccccc1)C(=O)O` [Example 99] (H-EV[Ala(4-thiazolyl)][β3hPhe(2R-OH)]DAEF-OH), for which the inhibition at 2 µM worked out at 58%.

`CC(C)C[C@H](NC(=O)[C@@H](NC(=O)[C@@H](N)CCC(=O)O)C(C)C)C(=O)N[C@@H](Cc1ccccc1)[C@@H](O)C(=O)N[C@H](CC(=O)O)C(=O)O` [Example 100] (H-EVL[β3hPhe(2R-OH)][dD]-OH): the inhibition at 2 µM was determined as 56.9%.

Consider `CC(C)C[C@H](NC(=O)[C@@H](NC(=O)[C@@H](N)CCCNC(=O)C(=O)O)C(C)C)C(=O)N[C@@H](Cc1ccccc1)[C@@H](O)C(=O)N[C@@H](CC(=O)O)C(=O)N[C@@H](C)C(=O)N[C@@H](CCC(=O)O)C(=O)O` [Example 101] (H-[Orn](Oxalyl)VL[β3hPhe(2R-OH)]DAE-OH), for which the inhibition at 2 µM is 56.1%.

Take `CC(C)C[C@H](NC(=O)[C@@H](NC(=O)[C@@H](N)CCC(=O)O)C(C)C)C(=O)N[C@@H](Cc1ccccc1)[C@@H](O)C(=O)N[C@@H](CC(=O)O)C(=O)NCc1ccc(C(=O)O)cc1` [Example 103] (H-EVL[β3hPhe(2R-OH)]D[4Amb]-OH): the inhibition at 2 µM is 54.6%.

As to `CCOC(=O)C(=O)NC[C@H](N)C(=O)N[C@H](C(=O)N[C@@H](CC(C)C)C(=O)N[C@@H](Cc1ccccc1)[C@@H](O)C(=O)Nc1cc(C(=O)OC)cc(C(=O)OC)c1)C(C)C` [Example 104], the inhibition at 2 µM stood at 54.4%.

`CC(C)C[C@H](NC(=O)[C@@H](NC(=O)[C@@H](N)CCC(=O)O)C(C)C)C(=O)N[C@@H](Cc1ccccc1)[C@@H](O)C(=O)N1CSC(C)(C)[C@H]1C(=O)N[C@@H](C)C(=O)NC(CCC(=O)O)C(=O)N[C@@H](Cc1ccccc1)C(=O)O` (stereo partly drawn) [Example 106] (H-EVL[β3hPhe(2R-OH)][Thz(5,5-Me2)]A[ξE]F-OH): the inhibition at 2 µM is 53%.

For the molecule `CC(C)C[C@H](NC(=O)[C@@H](NC(=O)[C@@H](N)CCC(=O)O)C(C)C)C(=O)N[C@@H](Cc1ccccc1)[C@@H](O)C(=O)N[C@@H](CC(C)C)C(=O)N[C@@H](C)C(=O)N[C@@H](CCC(=O)O)C(=O)N[C@@H](Cc1ccccc1)C(=O)O` [Example 107] (H-EVL[β3hPhe(2R-OH)]LAEF-OH), the inhibition at 2 µM came to 52.1%.
